Data taken from US20240315297A1, “STEVIOL GLYSOCIDE SOLUBILITY ENHANCERS” (CARGILL, INCORPORATED, priority 2017, published 2024).

Legend:
[1] = Observation of samples for solubility/precipitation in water (Example 9); type: physicochemical; settings: for time over which a soluble solution was promoted: 0.3% steviol glycoside mixture, 5:1 molar ratio of acid to steviol glycoside
[2] = type: physicochemical
Text: The composition can optionally be expressed in terms of the concentration of one or more steviol glycoside(s). […] Clear solutions without precipitates are considered soluble. Unless indicated otherwise herein, the term “solubility” refers to “equilibrium solubility.”

[3] = sensory evaluation; cited from earlier work

Row | Compound | time over which a soluble solution was promoted [1] [days] | equilibrium solubility [2] | instantaneous solubility [2] | also measured
1 | O=C(O)c1cc(O)c(O)c(O)c1 [Gallic acid] | – | – | – | colour imparted to the sample solutions ([1]; more apparent at higher concentrations, observed after about 3 days): brownish tinge
2 | O=C(O)c1cc(C(=O)O)c(C(=O)O)cc1C(=O)O [Pyromellitic acid] | 3 | – | – | –
3 | C=C1C[C@@]23CC[C@H]4[C@@](C)(CCC[C@@]4(C)C(=O)O[C@@H]4O[C@H](CO)[C@@H](O)[C@H](O[C@@H]5O[C@H](CO)[C@@H](O)[C@H](O)[C@H]5O)[C@H]4O[C@@H]4O[C@H](CO)[C@@H](O)[C@H](O)[C@H]4O)[C@@H]2CC[C@]1(O[C@@H]1O[C@H](CO)[C@@H](O)[C@H](O[C@@H]2O[C@H](CO)[C@@H](O)[C@H](O)[C@H]2O)[C@H]1O[C@@H]1O[C@H](CO)[C@@H](O)[C@H](O)[C@H]1O)C3 [Rebaudioside M, rebaudioside M] | – | about 0.2% | about 0.13% | –
4 | O=C(O)C(O)c1ccccc1 (centres unmarked) [Mandelic acid] | 3 | – | – | –
5 | C=C1C[C@@]23CC[C@H]4[C@@](C)(CCC[C@@]4(C)C(=O)O[C@@H]4O[C@H](CO)[C@@H](O)[C@H](O)[C@H]4O[C@@H]4O[C@H](CO)[C@@H](O)[C@H](O)[C@H]4O)[C@@H]2CC[C@]1(O[C@@H]1O[C@H](CO)[C@@H](O)[C@H](O[C@@H]2O[C@H](CO)[C@@H](O)[C@H](O)[C@H]2O)[C@H]1O[C@@H]1O[C@H](CO)[C@@H](O)[C@H](O)[C@H]1O)C3 [Rebaudioside D, rebaudioside D] | – | 0.08% | less than 0.08% | times sweeter than sucrose [3]: 200-220 times
